From patent US4376858A, “2-4-Diamino-5-methyl-6-[(3,4,5-trimethoxyanilino)methyl]quinazoline salts” (Warner Lambert Company, priority 1982, dated 1983)
Where a name gives a salt, the structure may show the parent alone.

Key:
[1] = Solubility of prepared 2,4-diamino-5-methyl-6-[(3,4,5-trimethoxyanilino)methyl]quinazoline salts in water; type: physicochemical; conditions: Table II, Method B: saturated 5.0 ml H2O overnight, filtrate diluted with 0.01 N HCl, 1440 min
[2] = as above; type: physicochemical; conditions: for Solubility in water: Table II, Method A: saturated 2.0 ml H2O overnight, filtrate diluted with methanol, 1440 min; for Filtrate pH / Solubility: Table III, Prepared Salt; for water solubility (in words): qualitative conclusion from Tables I and II
Protocol: Method A: Saturated 2.0 ml H2 O overnight, 0.5 ml of filtrate diluted to 10.0 ml with methanol, added 1 drop of 6 N KOH to UV cell.

[3] = Solubility of the base 2,4-diamino-5-methyl-6-[(3,4,5-trimethoxyanilino)methyl]quinazoline in aqueous acids (shake-out); type: physicochemical; conditions: for Base Solubility in acid soln.: Table I; for Solubility / Filtrate pH: Table III
neoplasms = conditions: Biochemical Pharmacology 28, 1983-1987; Cancer Research 39, 293-304; cited from earlier work
malaria = conditions: reported in Great Britain Patent Specification No. 1,345,502; cited from earlier work
bacteria = conditions: reported in Great Britain Patent Specification No. 1,345,502; cited from earlier work
[4] = Stability and solid form of the salts; type: physicochemical; conditions: qualitative
[5] = acid conc. .1 M, acid/base 2/1, * not saturated (isethionic, ethoxyacetic)
[6] = 0.1 M acid per method (head: 1 M soln.), 0.05 M base, shaken 4-12 hours, UV 321 nm
[7] = lines marked *: .05 M acid, 1/1 acid/base
[8] = listed as 2,4-diamino-5-methyl-6-[(3,4,5-trimethoxyanilino)methyl]quinazoline glucuronate
[9] = acid conc. .06 M, acid/base 1/1

COc1cc(NCc2ccc3nc(N)nc(N)c3c2C)cc(OC)c1OC [3-Hydroxypropyl sulfonate]
Solubility in water [1]: 4.73 mg base/ml

COc1cc(NCc2ccc3nc(N)nc(N)c3c2C)cc(OC)c1OC [Acetate]
Solubility in water [2]: 1.72 mg base/ml

COc1cc(NCc2ccc3nc(N)nc(N)c3c2C)cc(OC)c1OC [Benzene sulfonate]
Base Solubility in acid soln. ([3]; lines marked *: .05 M acid, 1/1 acid/base, listed as Benzene sulfonic): 1.89 mg base/ml
Base Solubility in acid soln. ([3]; 0.1 M acid per method (head: 1 M soln.), 0.05 M base, shaken 4-12 hours, UV 321 nm, listed as Benzene sulfonic): 7.17 mg base/ml
Solubility ([3]; acid conc. .05 M, acid/base 1/1, * not saturated (isethionic), listed as Benzene sulfonic): 1.89 mg base/ml
Filtrate pH ([3]; acid conc. .05 M, acid/base 1/1, listed as Benzene sulfonic): 2.95
Solubility ([3]; acid conc. .1 M, acid/base 2/1, * not saturated (isethionic, ethoxyacetic), listed as Benzene sulfonic): 7.17 mg base/ml
Filtrate pH ([3]; acid conc. .1 M, acid/base 2/1, listed as Benzene sulfonic): 2.95
Filtrate pH ([2]; listed as Benzene sulfonic): 4.45
Solubility ([2]; listed as Benzene sulfonic): 1.24 mg base/ml
Solubility in water [1]: 1.24 mg base/ml

COc1cc(NCc2ccc3nc(N)nc(N)c3c2C)cc(OC)c1OC [Ethane sulfonate]
Solubility in water [1]: 2.64 mg base/ml

COc1cc(NCc2ccc3nc(N)nc(N)c3c2C)cc(OC)c1OC [Ethoxyacetate]
Base Solubility in acid soln. ([3]; lines marked *: .05 M acid, 1/1 acid/base, listed as Ethoxyacetic): 19.7 mg base/ml
Base Solubility in acid soln. ([3]; 0.1 M acid per method (head: 1 M soln.), 0.05 M base, shaken 4-12 hours, UV 321 nm, listed as Ethoxyacetic): 19.5 mg base/ml
Solubility ([3]; acid conc. .065 M, acid/base 1/1, * not saturated): 19.7 mg base/ml
Solubility [3, 5]: 19.5 mg base/ml
Solubility ([2]; listed as Ethoxyacetic): 6.3 mg base/ml
Solubility in water [1]: 6.3 mg base/ml

COc1cc(NCc2ccc3nc(N)nc(N)c3c2C)cc(OC)c1OC [Free base, 2,4-diamino-5-methyl-6-[(3,4,5-trimethoxyanilino)methyl]quinazoline]
antineoplastic activity (neoplasms): exhibit antineoplastic activity
antimalarial activity (malaria): exhibiting antimalarial and antibacterial activity
Solubility in water [2]: 0.2 mg base/ml
Solubility in water [1]: 0.1 mg base/ml
antibacterial activity (bacteria): exhibiting antimalarial and antibacterial activity

COc1cc(NCc2ccc3nc(N)nc(N)c3c2C)cc(OC)c1OC [Galacturonic]
Base Solubility in acid soln. [3, 6]: 25.1 mg base/ml
solid form (in words) ([4]; listed as galacturonate): undesirable amorphous form

COc1cc(NCc2ccc3nc(N)nc(N)c3c2C)cc(OC)c1OC [Gentisate]
Solubility in water [2]: 1.4-7.06 mg base/ml
Solubility in water [1]: 0.28 mg base/ml

COc1cc(NCc2ccc3nc(N)nc(N)c3c2C)cc(OC)c1OC [Gluconatete]
Solubility in water [1]: 2.55 mg base/ml

COc1cc(NCc2ccc3nc(N)nc(N)c3c2C)cc(OC)c1OC [Gluconic]
Base Solubility in acid soln. [3, 7]: 19.8 mg base/ml
solid form (in words) ([4]; listed as gluconate): undesirable amorphous form

COc1cc(NCc2ccc3nc(N)nc(N)c3c2C)cc(OC)c1OC [Glucuronate, 2,4-Diamino-5-methyl-6-[(3,4,5-trimethoxyanilino)methyl]quinazoline D-glucuronate]
Base Solubility in acid soln. ([3]; 0.1 M acid per method (head: 1 M soln.), 0.05 M base, shaken 4-12 hours, UV 321 nm, listed as Glucuronic): 34.35 mg base/ml
solid form (in words) [4, 8]: powdery rather than crystalline
water solubility (in words) [2, 8]: higher degree of solubility
Solubility in water [1]: 109.4 mg base/ml

COc1cc(NCc2ccc3nc(N)nc(N)c3c2C)cc(OC)c1OC [Glycolic]
Base Solubility in acid soln. [3, 7]: 4.73 mg base/ml
Base Solubility in acid soln. [3, 6]: 4.13 mg base/ml
Filtrate pH ([3]; acid conc. .1 M, acid/base 1/1): 3.28
Solubility ([3]; acid conc. .1 M, acid/base 1/1): 4.73 mg base/ml
Filtrate pH ([3]; acid conc. .1 M, acid/base 2/1): 3.00
Solubility [3, 5]: 4.13 mg base/ml
Filtrate pH [2]: 5.30
Solubility [2]: 2.55 mg base/ml

COc1cc(NCc2ccc3nc(N)nc(N)c3c2C)cc(OC)c1OC [Hydrochloride]
Solubility in water [2]: 3.22 mg base/ml

COc1cc(NCc2ccc3nc(N)nc(N)c3c2C)cc(OC)c1OC [Isethionate, 2,4-Diamino-5-methyl-6-[(3,4,5-trimethoxyanilino)methyl]quinazoline monoisethionate]
Base Solubility in acid soln. ([3]; lines marked *: .05 M acid, 1/1 acid/base, listed as Isethionic): 17.3 mg base/ml
Base Solubility in acid soln. ([3]; 0.1 M acid per method (head: 1 M soln.), 0.05 M base, shaken 4-12 hours, UV 321 nm, listed as Isethionic): 16.3 mg base/ml
Solubility ([3]; acid conc. .05 M, acid/base 1/1, * not saturated (isethionic)): 17.34 mg base/ml
Filtrate pH ([3]; acid conc. .05 M, acid/base 1/1, listed as Isethionic): 3.70
Solubility [3, 5]: 16.33 mg base/ml
Filtrate pH ([3]; acid conc. .1 M, acid/base 2/1, listed as Isethionic): 1.83
solid form (in words) [4]: crystalline
stability (in words) [4]: stable
Solubility in water [2]: 23.93 mg base/ml
Filtrate pH ([2]; listed as Isethionic): 5.30
Solubility ([2]; listed as Isethionic): 24.8 mg base/ml
water solubility (in words) [2]: highly water soluble
Solubility in water [1]: 24.78 mg base/ml

COc1cc(NCc2ccc3nc(N)nc(N)c3c2C)cc(OC)c1OC [Lactate]
Solubility in water [2]: 4.34 mg base/ml

COc1cc(NCc2ccc3nc(N)nc(N)c3c2C)cc(OC)c1OC [Methane sulfonic]
Base Solubility in acid soln. [3, 7]: 6.49 mg base/ml
Base Solubility in acid soln. [3, 6]: 9.83 mg base/ml
Filtrate pH [3, 9]: 3.00
Solubility [3, 9]: 6.5 mg base/ml
Solubility ([3]; acid conc. .1 M, acid/base 1/.9): 8.74 mg base/ml
Filtrate pH [2]: 5.32
Solubility [2]: 4.9 mg base/ml

COc1cc(NCc2ccc3nc(N)nc(N)c3c2C)cc(OC)c1OC [N--(Morpholine)ethane-2-sulfonic]
Base Solubility in acid soln. [3, 6]: 11.2 mg base/ml

COc1cc(NCc2ccc3nc(N)nc(N)c3c2C)cc(OC)c1OC [d-Tartaric]
Base Solubility in acid soln. [3, 6]: 1.57 mg base/ml

COc1cc(NCc2ccc3nc(N)nc(N)c3c2C)cc(OC)c1OC [p-Toluene sulfonic]
Base Solubility in acid soln. [3, 6]: 2.74 mg base/ml
